From patent EP0863148A1, “Compounds derived from adenosine, use of such compound as a medicament, method for synthesizing such a compound and intermediates thereof” (K.U. LEUVEN RESEARCH & DEVELOPMENT, priority 1997, dated 1998)

Columns and labels:
adenosine A1 receptor = molecular target: T1, adenosine A1 receptor (Rattus norvegicus, UniProt P25099); assay: Radioligand binding assay, displacement of [3H]DPCPX, in the absence and presence of 1 mM GTP; conditions: for Ki: rat brain cortex, [3H]DPCPX; for GTP shift: ratio of the apparent Ki values in the presence and absence of 1 mM GTP
T1 construct: adenosine A1 receptor in rat brain cortex; from tissue; host or cells: rat brain cortex
T1 sequence (P25099 1-326): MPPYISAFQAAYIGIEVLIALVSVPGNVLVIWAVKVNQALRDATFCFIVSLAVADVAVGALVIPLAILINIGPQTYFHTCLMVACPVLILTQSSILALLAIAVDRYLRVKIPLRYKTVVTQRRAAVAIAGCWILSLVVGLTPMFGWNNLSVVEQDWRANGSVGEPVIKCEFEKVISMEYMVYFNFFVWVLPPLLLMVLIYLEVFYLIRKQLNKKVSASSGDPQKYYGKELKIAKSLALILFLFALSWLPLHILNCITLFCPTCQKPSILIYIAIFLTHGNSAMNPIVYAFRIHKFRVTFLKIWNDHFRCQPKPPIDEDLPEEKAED
Experimental: The compounds were assayed for A1 affinity (Ki values expressed in µM) using the tritiated antagonist [^3H]-1,3-dipropyl-8-cyclopentylxanthine (DPCPX). Displacement experiments were performed in the absence and presence of 1 mM GTP, allowing the determination of the GTP shift (i.e., the ratio of the apparant Ki values in the presence and absence of GTP, respectively). This shift is an in vitro parameter often indicative for intrinsic activity.

A1 receptor = molecular target: T2, A1 receptor (Homo sapiens, UniProt P30542); conditions: cited from earlier work
T2 sequence (P30542 1-326): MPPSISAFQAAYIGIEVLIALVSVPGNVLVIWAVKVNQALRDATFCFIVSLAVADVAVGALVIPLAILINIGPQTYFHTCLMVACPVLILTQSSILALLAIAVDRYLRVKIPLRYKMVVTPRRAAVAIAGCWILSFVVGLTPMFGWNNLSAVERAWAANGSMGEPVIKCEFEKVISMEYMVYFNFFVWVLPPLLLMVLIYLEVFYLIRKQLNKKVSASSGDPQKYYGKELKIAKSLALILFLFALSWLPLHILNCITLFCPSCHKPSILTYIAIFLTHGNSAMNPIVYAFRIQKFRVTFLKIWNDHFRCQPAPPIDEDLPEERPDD

A2a receptors = assay: Selectivity for A1 vs A2a receptors (method not described); type: binding
Chain of A2a receptors (P29274 whole entry): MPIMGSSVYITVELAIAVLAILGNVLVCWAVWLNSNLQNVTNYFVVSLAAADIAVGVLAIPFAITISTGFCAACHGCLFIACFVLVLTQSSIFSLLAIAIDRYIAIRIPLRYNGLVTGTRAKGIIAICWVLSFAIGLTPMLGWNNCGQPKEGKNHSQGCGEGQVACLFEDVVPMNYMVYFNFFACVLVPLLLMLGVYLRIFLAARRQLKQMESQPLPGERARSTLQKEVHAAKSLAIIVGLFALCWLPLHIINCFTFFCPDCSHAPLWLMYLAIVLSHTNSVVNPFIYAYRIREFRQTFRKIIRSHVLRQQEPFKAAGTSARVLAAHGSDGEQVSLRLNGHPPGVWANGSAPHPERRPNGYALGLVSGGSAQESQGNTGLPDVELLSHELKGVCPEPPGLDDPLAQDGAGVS

| Ki (adenosine A1 receptor; absence of GTP) [nM] | Ki (adenosine A1 receptor; presence of 1 mM GTP) [nM] | GTP shift (adenosine A1 receptor) | selectivity for A1 vs A2a receptors (A2a receptors) [times] | affinity for A1 receptors (adenosine A1 receptor; stated in words) | SMILES | affinity for the A1 receptor (A1 receptor; stated in words, background) | drop in affinity (A1 receptor; A1 receptor affinity, removal of the 3'-hydroxyl group of R-PIA) [fold] |
| --- | --- | --- | --- | --- | --- | --- | --- |
| 83 ± 15 | 68 ± 10 | 0.84±0.19 |  |  | Cc1ccc(C(=O)N[C@@H]2[C@@H](O)[C@H](n3cnc4c(NC5CCCC5)ncnc43)O[C@@H]2CO)cc1 [b, 9-[3-Deoxy-3-(4-methylbenzamido)-β-D-xylofuranosyl]-N^6-cyclopentyladenine] |  |  |
| 23.6 ± 2.5 | 17.4 ± 4.2 | 0.73±0.11 | 160 |  | Cc1ccc(C(=O)N[C@@H]2[C@@H](O)[C@H](n3cnc4c(NC5CCCC5)ncnc43)O[C@@H]2CO)cc1C [c, 9-[3-Deoxy-3-(3,4-dimethylbenzamido)-β-D-xylofuranosyl]-N^6-cyclopentyladenine] |  |  |
|  |  |  |  | relatively poor affinity | [N-]=[N+]=NC1C(CO)OC(n2cnc3c(NC4CCCC4)ncnc32)C1O (stereo not shown) [compound 3] |  |  |
| 32.5 ± 0.31 | 23.7 ± 1.4 | 0.73±0.09 |  |  | O=C(N[C@@H]1[C@@H](O)[C@H](n2cnc3c(NC4CCCC4)ncnc32)O[C@@H]1CO)c1ccc(Cl)c(Cl)c1 [d, 9-[3-Deoxy-3-(3,4-dichlorobenzamido)-β-D-xylofuranosyl]-N^6-cyclopentyladenine] |  |  |

The next lines start with the compound.

| SMILES | Ki (adenosine A1 receptor; absence of GTP) [nM] | Ki (adenosine A1 receptor; presence of 1 mM GTP) [nM] | GTP shift (adenosine A1 receptor) | selectivity for A1 vs A2a receptors (A2a receptors) [times] | affinity for A1 receptors (adenosine A1 receptor; stated in words) | affinity for the A1 receptor (A1 receptor; stated in words, background) | drop in affinity (A1 receptor; A1 receptor affinity, removal of the 3'-hydroxyl group of R-PIA) [fold] |
| --- | --- | --- | --- | --- | --- | --- | --- |
| OCC1CC(O)C(n2cnc3c(NC4CCCC4)ncnc32)O1 (stereo not shown) [3'-deoxy-CPA, reference compound] | 110 ± 30 | 470 ± 40 | 4.3±1.2 |  |  | submicromolar affinity |  |
| C[C@H](Cc1ccccc1)Nc1ncnc2c1ncn2[C@@H]1O[C@H](CO)C[C@H]1O [3'-deoxy-R-PIA] |  |  |  |  |  |  | 30 |
| Nc1ncnc2c1ncn2[C@@H]1O[C@H](CO)C[C@H]1O [3'-deoxyadenosine, reference compound] | 7120 ± 3620 | 15200 ± 2000 | 2.1±1.4 |  |  |  |  |
| O=C(N[C@@H]1[C@@H](O)[C@H](n2cnc3c(NC4CCCC4)ncnc32)O[C@@H]1CO)c1ccccc1 [a, 9-(3-Benzamido-3-deoxy-β-D-xylofuranosyl)-N^6-cyclopentyladenine] | 400 ± 130 | 310 ± 50 | 0.80±0.13 |  |  |  |  |
